Source: patent publication US20260028336A1 (Arcus Biosciences, Inc., priority 2022, published 2026)

How the values were obtained:
[1] = biological target: T1, Cbl-b (Homo sapiens, UniProt Q13191); test: Cbl-b probe displacement HTRF binding assay; conditions: 0.4 nM biotinylated Cbl-b, 150 nM BODIPY probe
T1 construct: biotin (biotinylated)
In short: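 Biotinylated Cbl-b was preincubated with compound for 60 min at room temperature in HEPES/NaCl/Triton/TCEP/BSA buffer. BODIPY probe was added for 15 min, followed by streptavidin-terbium, and the HTRF signal was read. Displacement was normalised to DMSO and no-protein controls, and affinity was obtained from a four-parameter dose-response fit.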

[2] = tested on: Jurkat cells; test: IL-2 secretion assay in CD3/CD28-activated Jurkat cells (AlphaLISA); format: cell-based; conditions: Homo sapiens, CD3/CD28 T Cell Activator, 24 h, IL-2 AlphaLISA
In short: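 Jurkat cells (50,000/well) were preincubated 1 h at 37° C with compound in a 16-point 1:2 series spanning 10 μM to 300 pM final. Cells were then activated with CD3/CD28 T cell activator, and secreted IL-2 was read by AlphaLISA. EC50 came from 4-parameter logistic fits.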

T1 sequence (Q13191 whole entry, species assumed): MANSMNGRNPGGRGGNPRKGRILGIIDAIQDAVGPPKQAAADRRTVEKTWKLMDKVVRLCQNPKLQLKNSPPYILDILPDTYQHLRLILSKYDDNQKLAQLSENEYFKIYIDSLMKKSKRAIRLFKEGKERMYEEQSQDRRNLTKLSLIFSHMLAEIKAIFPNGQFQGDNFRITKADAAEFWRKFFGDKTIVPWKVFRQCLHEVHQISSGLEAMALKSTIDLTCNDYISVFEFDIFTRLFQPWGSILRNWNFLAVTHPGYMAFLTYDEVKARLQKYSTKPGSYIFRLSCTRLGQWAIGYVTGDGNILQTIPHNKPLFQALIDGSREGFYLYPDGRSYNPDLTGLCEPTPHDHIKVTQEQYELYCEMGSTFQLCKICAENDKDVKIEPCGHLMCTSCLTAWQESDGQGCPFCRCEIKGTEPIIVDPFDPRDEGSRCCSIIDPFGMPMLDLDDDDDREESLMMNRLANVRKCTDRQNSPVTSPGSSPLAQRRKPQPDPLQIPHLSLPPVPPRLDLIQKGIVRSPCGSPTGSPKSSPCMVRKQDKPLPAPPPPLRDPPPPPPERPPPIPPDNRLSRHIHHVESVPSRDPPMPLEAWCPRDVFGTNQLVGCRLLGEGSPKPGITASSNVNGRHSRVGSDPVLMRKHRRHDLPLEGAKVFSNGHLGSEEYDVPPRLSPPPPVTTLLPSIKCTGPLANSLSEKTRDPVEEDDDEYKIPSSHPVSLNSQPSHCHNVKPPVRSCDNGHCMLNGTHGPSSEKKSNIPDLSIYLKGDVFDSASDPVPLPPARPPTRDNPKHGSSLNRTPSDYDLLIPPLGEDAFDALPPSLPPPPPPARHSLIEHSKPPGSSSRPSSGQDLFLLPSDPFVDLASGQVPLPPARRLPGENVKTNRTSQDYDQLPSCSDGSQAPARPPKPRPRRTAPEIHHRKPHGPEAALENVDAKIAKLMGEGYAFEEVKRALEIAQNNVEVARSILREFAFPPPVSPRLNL

SMILES | IC50 [1] | EC50 [2]
CC1CC(c2cccc(-n3cc(C4CC4)c4cc(CN5CCC6(CC5)CC6)[nH]c4c3=O)c2)(c2nncn2C)C1 (stereo not shown) [Example 50, 2-({6-azaspiro[2.5]octan-6-yl}methyl)-4-cyclopropyl-6-{3-[3-methyl-1-(4-methyl-4H-1,2,4-triazol-3-yl)cyclobutyl]phenyl}-1H,6H,7H-pyrrolo[2,3-c]pyridin-7-one] | < 100 nM | < 100 nM
C[C@H]1CCCN(Cc2cc3c(C4CC4)cn(-c4cccc(C5(Cn6ccnn6)CC(F)(F)C5)c4)c(=O)c3[nH]2)C1 [Example 123, 4-cyclopropyl-6-[3-[3,3-difluoro-1-(triazol-1-ylmethyl)cyclobutyl]phenyl]-2-[[(3S)-3-methylpiperidin-1-yl]methyl]-1H-pyrrolo[2,3-c]pyridin-7-one] | 100 to 1000 nM | 100 to 1000 nM
CC1CC(c2cccc(-n3cc(C4CC4)c4cc(CNC5(CO)CCC5)[nH]c4c3=O)c2)(c2nncn2C)C1 (stereo not shown) [Example 42, 4-cyclopropyl-2-({[1-(hydroxymethyl)cyclobutyl]amino}methyl)-6-{3-[3-methyl-1-(4-methyl-4H-1,2,4-triazol-3-yl)cyclobutyl]phenyl}-1H,6H,7H-pyrrolo[2,3-c]pyridin-7-one] | < 100 nM | < 100 nM
COC1CC(c2cccc(-n3cc(C4CC4)c4cc(CN5CCO[C@H](C)C5)[nH]c4c3=O)c2)(c2nncn2C)C1 (stereo partly drawn) [Example 103, 4-cyclopropyl-6-[3-[3-methoxy-1-(4-methyl-1,2,4-triazol-3-yl)cyclobutyl]phenyl]-2-[[(2R)-2-methylmorpholin-4-yl]methyl]-1H-pyrrolo[2,3-c]pyridin-7-one] | < 100 nM | 100 to 1000 nM
Cn1cnnc1C1(c2cccc(-n3cc(C4CC4)c4cc(CNCC5(O)CCC5)[nH]c4c3=O)c2)CC(F)(F)C1 [Example 83, 4-cyclopropyl-6-{3-[3,3-difluoro-1-(4-methyl-4H-1,2,4-triazol-3-yl)cyclobutyl]phenyl}-2-({[(1-hydroxycyclobutyl)methyl]amino}methyl)-1H,6H,7H-pyrrolo[2,3-c]pyridin-7-one] | < 100 nM | 100 to 1000 nM
CC(O)C1(NCc2cc3c(C4CC4)cn(-c4cccc(C5(c6nncn6C)CC(F)(F)C5)c4)c(=O)c3[nH]2)CC1 (stereo not shown) [Example 84, 4-cyclopropyl-6-{3-[3,3-difluoro-1-(4-methyl-4H-1,2,4-triazol-3-yl)cyclobutyl]phenyl}-2-({[1-(1-hydroxyethyl)cyclopropyl]amino}methyl)-1H,6H,7H-pyrrolo[2,3-c]pyridin-7-one] | < 100 nM | 1000 to 5000 nM
CC1CC(c2cccc(-n3cc(C4CC4)c4cc(CN(C)S(C)(=O)=O)[nH]c4c3=O)c2)(c2nncn2C)C1 (stereo not shown) [Example 69, N-[(4-cyclopropyl-7-oxo-6-{3-[(1r,3s)-3-methyl-1-(4-methyl-4H-1,2,4-triazol-3-yl)cyclobutyl]phenyl}-1H,6H,7H-pyrrolo[2,3-c]pyridin-2-yl)methyl]-N-methylmethanesulfonamide] | 100 to 1000 nM | 1000 to 5000 nM
CC1CC(c2cccc(-n3cc(C4CC4)c4cc(CN5CCC[C@H](F)C5)[nH]c4c3=O)c2)(c2nncn2C)C1 (stereo partly drawn) [Example 64, 4-cyclopropyl-2-{[(3S)-3-fluoropiperidin-1-yl]methyl}-6-{3-[(1r,3s)-3-methyl-1-(4-methyl-4H-1,2,4-triazol-3-yl)cyclobutyl]phenyl}-1H,6H,7H-pyrrolo[2,3-c]pyridin-7-one] | < 100 nM | 100 to 1000 nM
C[C@H]1CCCN(Cc2cc3c(C4CC4)cn(-c4cccc([C@]5(c6nncn6C(F)F)C[C@H](OC(F)F)C5)c4)c(=O)c3[nH]2)C1 [Example 151, 2—{[(S)-3-methyl-1-piperidyl]methyl}-4-cyclopropyl-6-(m-{(1r,3S)-3-difluoromethoxy-1-[4-(difluoromethyl)-4H-1,2,4-triazol-3-yl]cyclobutyl}phenyl)-1,6-dihydro-1,6-diaza-7-indenone] | < 100 nM | < 100 nM
C[C@H]1CCCN(Cc2cc3c(C4CC4)cn(-c4cccc(C(F)(F)c5nncn5C)c4)c(=O)c3[nH]2)C1 [Example 161, 4-cyclopropyl-6-[3-[difluoro-(4-methyl-1,2,4-triazol-3-yl)methyl]phenyl]-2-[[(3S)-3-methylpiperidin-1-yl]methyl]-1H-pyrrolo[2,3-c]pyridin-7-one] | < 100 nM | 100 to 1000 nM
C[C@H]1CCCN(Cc2cc3c(C4CC4)cn(-c4cccc([C@]5(c6nncn6C)C[C@@H](OC(F)F)C5)c4)c(=O)c3[nH]2)C1 [Example 96, cis-4-cyclopropyl-6-[3-[3-(difluoromethoxy)-1-(4-methyl-1,2,4-triazol-3-yl)cyclobutyl]phenyl]-2-[[(3S)-3-methylpiperidin-1-yl]methyl]-1H-pyrrolo[2,3-c]pyridin-7-one] | < 100 nM | < 100 nM
CC(c1cccc(-n2cc(C3CC3)c3cc(CN4CCC[C@H](C)C4)[nH]c3c2=O)c1)c1nncn1C (stereo partly drawn) [Example 165, 4-cyclopropyl-2-[[(3S)-3-methylpiperidin-1-yl]methyl]-6-[3-[1-(4-methyl-1,2,4-triazol-3-yl)ethyl]phenyl]-1H-pyrrolo[2,3-c]pyridin-7-one] | < 100 nM | < 100 nM
CC1CC(c2cccc(-n3cc(C4CC4)c4cc(CN5CCC6(CC6)C5)[nH]c4c3=O)c2)(c2nncn2C)C1 (stereo not shown) [Example 63, 2-({5-azaspiro[2.4]heptan-5-yl}methyl)-4-cyclopropyl-6-{3-[(1r,3s)-3-methyl-1-(4-methyl-4H-1,2,4-triazol-3-yl)cyclobutyl]phenyl}-1H,6H,7H-pyrrolo[2,3-c]pyridin-7-one] | < 100 nM | < 100 nM
CC1CC(c2cccc(-n3cc(C4CC4)c4cc(CN5CC6CCC5C6)[nH]c4c3=O)c2)(c2nncn2C)C1 (stereo not shown) [Example 52, 2-({2-azabicyclo[2.2.1]heptan-2-yl}methyl)-4-cyclopropyl-6-{3-[3-methyl-1-(4-methyl-4H-1,2,4-triazol-3-yl)cyclobutyl]phenyl}-1H,6H,7H-pyrrolo[2,3-c]pyridin-7-one] | < 100 nM | < 100 nM
Cn1cnnc1[C@]1(c2cccc(-n3cc(C(F)(F)F)c4cc[nH]c4c3=O)c2)C[C@@H](C)C1 (single isomer, unassigned) [Example 37] | < 100 nM | 100 to 1000 nM
CC1CC(c2cccc(-n3cnc4c(C(F)(F)F)c(CN5CCC[C@H](C)C5)[nH]c4c3=O)c2)(c2nncn2C)C1 (mixture of isomers) [Example 143, 6—{[(3S)-3-Methylpiperidin-1-yl]methyl}-3-{3-[(1R,3S)-3-methyl-1-(4-methyl-4H-1,2,4-triazol-3-yl)cyclobutyl]phenyl}-7-(trifluoromethyl)-3H,4H,5H-pyrrolo[3,2-d]pyrimidin-4-one] | < 100 nM | 100 to 1000 nM
O=c1c2[nH]c(CNCC3(O)CCC3)cc2c(C2CC2)cn1-c1cccc([C@]2(c3nncn3C(F)F)C[C@H](OC(F)F)C2)c1 [Example 152, 4-cyclopropyl-2-({[(1-hydroxycyclobutyl)methyl]amino}methyl)-6-(m-{(1r,3r)-3-difluoromethoxy-1-[4-(difluoromethyl)-4H-1,2,4-triazol-3-yl]cyclobutyl}phenyl)-1,6-dihydro-1,6-diaza-7-indenone] | < 100 nM | 1000 to 5000 nM
